# From PubChem BioAssay (NCI)
#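 Briefly, cells in 96-well plates were exposed to five compound concentrations for 48 h, and endpoints were estimated by linear interpolation. At the GI50, growth is halved. TGI marks complete inhibition of growth.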
# Experiments:
# Test in all cases: inhibition of tumour cell growth, NCI panel, 48 h
# [1] = system: SK-MEL-2 melanoma
# [2] = system: M14 melanoma
# [3] = system: SR leukemia
# [4] = system: SK-OV-3 ovarian
# [5] = system: MALME-3M melanoma
# [6] = system: SK-MEL-28 melanoma
# [7] = system: UACC-62 melanoma
# [8] = system: 786-0 renal
# [9] = system: DU-145 prostate
# [10] = system: COLO 205 colon
# [11] = system: HOP-92 NSCLC
# [12] = system: MOLT-4 leukemia
# [13] = system: SF-268 CNS
# [14] = system: UO-31 renal
# [15] = system: SN12C renal
# [16] = system: SNB-75 CNS
# [17] = system: KM12 colon
# [18] = system: NCI-H522 lung
# [19] = system: SF-539 CNS
# [20] = system: OVCAR-5 ovarian
# [21] = system: HCT-15 colon
# [22] = system: OVCAR-4 ovarian
# [23] = system: A549 NSCLC
# [24] = system: SNB-19 CNS
# [25] = system: MCF7 breast
# [26] = system: OVCAR-8 ovarian
# [27] = system: UACC-257 melanoma
# [28] = system: SW-620 colon
# [29] = system: OVCAR-3 ovarian
# [30] = system: MDA-MB-435
# [31] = system: NCI-H23 lung
# [32] = system: RXF 393 renal
# [33] = system: K-562 leukemia
# [34] = system: BT-549 breast
# [35] = system: MDA-MB-231 breast
# [36] = system: T-47D breast
# [37] = system: NCI-H460 lung
# [38] = system: HCC-2998 colon
# [39] = system: CAKI-1 renal
# [40] = system: NCI/ADR-RES ovarian
# [41] = system: HS 578T breast
# [42] = system: A498 renal
# [43] = system: HT29 colon
# [44] = system: PC-3 prostate
# [45] = system: LOX IMVI melanoma
# [46] = system: ACHN renal
# [47] = system: HOP-62 NSCLC
# [48] = system: TK-10 renal
# [49] = system: SK-MEL-5 melanoma
# [50] = system: SF-295 CNS
# [51] = system: RPMI-8226 leukemia
# [52] = system: HCT-116 colon
# [53] = system: CCRF-CEM leukemia
# [54] = system: NCI-H226 lung
# [55] = system: IGROV1 ovarian
# [56] = system: U251 CNS
# [57] = system: HL-60(TB) leukemia
# [58] = system: EKVX NSCLC
structure (smiles),measurement,setting,value
COc1cc2c(cc1OC)C(CC1(O)CCCCC1)N(S(=O)(=O)c1ccc(C)cc1)CC2 (stereo not given),GI50,[1],> 10 µM
same,TGI,[1],> 10 µM
same,GI50,[2],> 10 µM
same,TGI,[2],> 10 µM
same,GI50,[3],> 10 µM
same,TGI,[3],> 10 µM
same,GI50,[4],> 10 µM
same,TGI,[4],> 10 µM
same,GI50,[5],> 10 µM
same,TGI,[5],> 10 µM
same,GI50,[6],> 10 µM
same,TGI,[6],> 10 µM
same,GI50,[7],> 10 µM
same,TGI,[7],> 10 µM
same,GI50,[8],> 10 µM
same,TGI,[8],> 10 µM
same,GI50,[9],> 10 µM
same,TGI,[9],> 10 µM
same,GI50,[10],> 10 µM
same,TGI,[10],> 10 µM
same,GI50,[11],> 10 µM
same,TGI,[11],> 10 µM
same,GI50,[12],> 10 µM
same,TGI,[12],> 10 µM
same,GI50,[13],> 10 µM
same,TGI,[13],> 10 µM
same,GI50,[14],> 10 µM
same,TGI,[14],> 10 µM
same,GI50,[15],> 10 µM
same,TGI,[15],> 10 µM
same,GI50,[16],> 10 µM
same,TGI,[16],> 10 µM
same,GI50,[17],> 10 µM
same,TGI,[17],> 10 µM
same,GI50,[18],> 10 µM
same,TGI,[18],> 10 µM
same,GI50,[19],> 10 µM
same,TGI,[19],> 10 µM
same,GI50,[20],> 10 µM
same,TGI,[20],> 10 µM
same,GI50,[21],> 10 µM
same,TGI,[21],> 10 µM
same,GI50,[22],> 10 µM
same,TGI,[22],> 10 µM
same,GI50,[23],> 10 µM
same,TGI,[23],> 10 µM
same,GI50,[24],> 10 µM
same,TGI,[24],> 10 µM
same,GI50,[25],> 10 µM
same,TGI,[25],> 10 µM
same,GI50,[26],> 10 µM
same,TGI,[26],> 10 µM
same,GI50,[27],> 10 µM
same,TGI,[27],> 10 µM
same,GI50,[28],> 10 µM
same,TGI,[28],> 10 µM
same,GI50,[29],> 10 µM
same,TGI,[29],> 10 µM
same,GI50,[30],> 10 µM
same,TGI,[30],> 10 µM
same,GI50,[31],> 10 µM
same,TGI,[31],> 10 µM
same,GI50,[32],> 10 µM
same,TGI,[32],> 10 µM
same,GI50,[33],> 10 µM
same,TGI,[33],> 10 µM
same,GI50,[34],> 10 µM
same,TGI,[34],> 10 µM
same,GI50,[35],> 10 µM
same,TGI,[35],> 10 µM
same,GI50,[36],> 10 µM
same,TGI,[36],> 10 µM
same,GI50,[37],> 10 µM
same,TGI,[37],> 10 µM
same,GI50,[38],> 10 µM
same,TGI,[38],> 10 µM
same,GI50,[39],> 10 µM
same,TGI,[39],> 10 µM
same,GI50,[40],> 10 µM
same,TGI,[40],> 10 µM
same,GI50,[41],> 10 µM
same,TGI,[41],> 10 µM
same,GI50,[42],> 10 µM
same,TGI,[42],> 10 µM
same,GI50,[43],> 10 µM
same,TGI,[43],> 10 µM
same,GI50,[44],> 10 µM
same,TGI,[44],> 10 µM
same,GI50,[45],> 10 µM
same,TGI,[45],> 10 µM
same,GI50,[46],> 10 µM
same,TGI,[46],> 10 µM
same,GI50,[47],> 10 µM
same,TGI,[47],> 10 µM
same,GI50,[48],> 10 µM
same,TGI,[48],> 10 µM
same,GI50,[49],> 10 µM
same,TGI,[49],> 10 µM
same,GI50,[50],> 10 µM
same,TGI,[50],> 10 µM
same,GI50,[51],> 10 µM
same,TGI,[51],> 10 µM
same,GI50,[52],> 10 µM
same,TGI,[52],> 10 µM
same,GI50,[53],> 10 µM
same,TGI,[53],> 10 µM
same,GI50,[54],> 10 µM
same,TGI,[54],> 10 µM
same,GI50,[55],> 10 µM
same,TGI,[55],> 10 µM
same,GI50,[56],> 10 µM
same,TGI,[56],> 10 µM
O=C(NCCN1CCC(O)CC1)c1cc2c(o1)C(=O)c1ccccc1C2=O,GI50,[1],0.518 µM
same,TGI,[1],2.21 µM
same,GI50,[2],0.123 µM
same,TGI,[2],0.268 µM
same,GI50,[3],0.396 µM
same,TGI,[3],20.5 µM
same,GI50,[4],1.51 µM
same,TGI,[4],2.92 µM
same,GI50,[5],0.0272 µM
same,TGI,[5],0.0885 µM
same,GI50,[6],0.549 µM
same,TGI,[6],1.74 µM
same,GI50,[7],0.164 µM
same,TGI,[7],0.308 µM
same,GI50,[8],1.44 µM
same,TGI,[8],2.96 µM
same,GI50,[9],0.179 µM
same,TGI,[9],0.325 µM
same,GI50,[10],0.078 µM
same,TGI,[10],0.228 µM
same,GI50,[11],1.48 µM
same,TGI,[11],3.19 µM
same,GI50,[12],0.383 µM
same,TGI,[12],1.74 µM
same,GI50,[13],1.27 µM
same,TGI,[13],3.55 µM
same,GI50,[14],0.666 µM
same,TGI,[14],1.84 µM
same,GI50,[57],0.282 µM
same,TGI,[57],1.02 µM
same,GI50,[15],0.175 µM
same,TGI,[15],0.354 µM
same,GI50,[16],0.323 µM
same,TGI,[16],0.797 µM
same,GI50,[17],0.481 µM
same,TGI,[17],1.87 µM
same,GI50,[18],0.284 µM
same,TGI,[18],1.09 µM
same,GI50,[19],0.211 µM
same,TGI,[19],0.471 µM
same,GI50,[20],0.212 µM
same,TGI,[20],0.384 µM
same,GI50,[21],0.21 µM
same,TGI,[21],0.624 µM
same,GI50,[22],0.182 µM
same,TGI,[22],0.436 µM
same,GI50,[23],0.213 µM
same,TGI,[23],0.514 µM
same,GI50,[24],0.27 µM
same,TGI,[24],0.956 µM
same,GI50,[25],0.137 µM
same,TGI,[25],0.338 µM
same,GI50,[26],0.322 µM
same,TGI,[26],1.41 µM
same,GI50,[27],0.176 µM
same,TGI,[27],0.391 µM
same,GI50,[28],0.31 µM
same,TGI,[28],1.05 µM
same,GI50,[29],0.242 µM
same,TGI,[29],0.658 µM
same,GI50,[30],0.177 µM
same,TGI,[30],0.324 µM
same,GI50,[31],0.0536 µM
same,TGI,[31],0.257 µM
same,GI50,[32],1.1 µM
same,TGI,[32],2.32 µM
same,GI50,[33],0.378 µM
same,GI50,[34],0.17 µM
same,TGI,[34],0.326 µM
same,GI50,[35],0.377 µM
same,TGI,[35],2.9 µM
same,GI50,[36],0.376 µM
same,TGI,[36],1.85 µM
same,GI50,[37],0.192 µM
same,TGI,[37],0.39 µM
same,GI50,[38],0.208 µM
same,TGI,[38],0.451 µM
same,GI50,[39],1.28 µM
same,TGI,[39],2.66 µM
same,GI50,[40],1.52 µM
same,TGI,[40],5.24 µM
same,GI50,[41],0.322 µM
same,TGI,[41],0.919 µM
same,GI50,[42],0.17 µM
same,TGI,[42],0.34 µM
same,GI50,[43],0.296 µM
same,TGI,[43],3.43 µM
same,GI50,[44],0.294 µM
same,TGI,[44],2.39 µM
same,GI50,[45],0.145 µM
same,TGI,[45],0.337 µM
same,GI50,[47],0.23 µM
same,TGI,[47],0.51 µM
same,GI50,[58],0.979 µM
same,TGI,[58],2.49 µM
same,GI50,[48],2 µM
same,TGI,[48],3.59 µM
same,GI50,[49],0.141 µM
same,TGI,[49],0.275 µM
same,GI50,[50],0.149 µM
same,TGI,[50],0.288 µM
same,GI50,[51],1.58 µM
same,TGI,[51],4.72 µM
same,GI50,[52],0.301 µM
same,TGI,[52],1.05 µM
same,GI50,[53],0.578 µM
same,TGI,[53],> 30.1 µM
same,GI50,[54],0.214 µM
same,TGI,[54],0.492 µM
same,GI50,[55],0.3 µM
same,TGI,[55],1.02 µM
same,GI50,[56],0.335 µM
same,TGI,[56],1.14 µM
